Assay results published in patent publication US8815853B2, “Pyrimidinone derivatives, preparation thereof and pharmaceutical use thereof” (Sanofi, priority 2010, dated 2014).
pIC50: −log10 of the molar value.

Columns and labels:
[1] = molecular target: T1, Vps34 (Homo sapiens, UniProt Q8NEB9); assay: Phosphorylation of phosphatidylinositol (PI) with Vps34 in vitro, ADP detected by TR-FRET (HTRF Transcreener ADP kit); format: biochemical; conditions: 10 μM ATP, 55 μg/mL PI, about 3 nM of Vps34, 1 hour at room temperature; absolute CI50, average of 2 independent experiments; read-out: VPS34 CI 50
T1 construct: purchased Invitrogen PV5126
T1 sequence (Q8NEB9 whole entry): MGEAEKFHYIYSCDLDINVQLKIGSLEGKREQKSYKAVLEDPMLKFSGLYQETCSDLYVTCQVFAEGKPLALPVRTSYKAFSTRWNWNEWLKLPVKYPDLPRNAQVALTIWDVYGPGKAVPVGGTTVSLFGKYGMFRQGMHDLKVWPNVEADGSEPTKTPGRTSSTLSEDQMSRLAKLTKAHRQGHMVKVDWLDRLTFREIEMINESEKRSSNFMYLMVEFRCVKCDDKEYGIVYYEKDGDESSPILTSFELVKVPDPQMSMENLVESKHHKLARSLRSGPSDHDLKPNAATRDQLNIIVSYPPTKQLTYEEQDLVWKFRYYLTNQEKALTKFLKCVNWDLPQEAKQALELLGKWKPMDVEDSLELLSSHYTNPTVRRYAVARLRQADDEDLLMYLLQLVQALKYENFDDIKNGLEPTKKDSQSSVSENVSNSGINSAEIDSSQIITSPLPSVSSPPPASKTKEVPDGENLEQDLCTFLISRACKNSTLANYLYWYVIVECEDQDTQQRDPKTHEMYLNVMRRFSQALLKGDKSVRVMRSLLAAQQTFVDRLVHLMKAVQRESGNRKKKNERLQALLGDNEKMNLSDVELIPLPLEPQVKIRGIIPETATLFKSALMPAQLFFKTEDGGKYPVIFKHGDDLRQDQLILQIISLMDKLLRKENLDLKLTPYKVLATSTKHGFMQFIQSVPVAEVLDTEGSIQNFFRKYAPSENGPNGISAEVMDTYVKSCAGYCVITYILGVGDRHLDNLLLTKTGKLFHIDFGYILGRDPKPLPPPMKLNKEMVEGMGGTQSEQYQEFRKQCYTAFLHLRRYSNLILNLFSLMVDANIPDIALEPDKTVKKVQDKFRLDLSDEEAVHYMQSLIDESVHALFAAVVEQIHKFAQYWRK
Description: Study of the Phosphorylation of Phosphatidylinositol (PI) with Vps34 In Vitro
This test is based on the detection of the ADP produced during phosphorylation of PI with Bps34 in the presence of ATP. ADP is detected by TR-FRET (Time resolved—Fluorescence Resonance Energy transfer) by using the Transcreener kit marketed by Cisbio (HTRF® Transcreener® ADP, reference 62ADPPEB).
The reaction is started with 10 μL of an ATP solution (Sigma A7699) in a buffer A and lasts for 1 hour at room temperature. […] The enzyme amount is adapted to each batch so as to form about 2 μM of ADP during the reaction. In parallel, an ADP and ATP range giving the possibility of calibration results is prepared according to the indications of the kit. Controls not containing any enzyme (negative control) or not containing any molecules (positive control) are also prepared in parallel. […] Fluorescence emission is detected on a Rubystar apparatus at 620 and 665 nm. The signal ratio is calculated by dividing the 665 nm signal by the 620 nm signal and then by multiplying by 10,000. The signal ratios are converted into an ADP concentration by using the calibration range and according to the instructions of the kit. The percentages of inhibition of the molecules are calculated relatively to the positive controls according to the formula (1−signal ratio of the molecule/signal ratio of the positive control)×100. […] With 2 independent experiments it is possible to calculate the average of the CI50s.

Row | SMILES | pIC50 [1] | melting point [°C]
1 | CCC(CC)CN1c2nc(N3CCOCC3)cc(=O)n2C[C@@]1(C)C(F)(F)F [Example 1a, (2S)-1-(2-Ethylbutyl)-2-methyl-7-(morpholin-4-yl)-2-(trifluoromethyl)-2,3-dihydroimidazo[1,2-a]pyrimidin-5(1H)-one] | > 8.00 | 
2 | CCC(CC)CN1c2nc(N3CCOCC3)cc(=O)n2CC[C@H]1C(F)(F)F [Example 1b, (8S)-9-(2-Ethylbutyl)-2-(morpholin-4-yl)-8-(trifluoromethyl)-6,7,8,9-tetrahydro-4H-pyrimido[1,2-a]pyrimidin-4-one] | > 8.00 | 
3 | C[C@@]1(C(F)(F)F)Cn2c(nc(N3CCOCC3)cc2=O)N1C1CC1 [Example 2a, (2S)-1-Cyclopropyl-2-methyl-7-(morpholin-4-yl)-2-(trifluoromethyl)-2,3-dihydroimidazo[1,2-a]pyrimidin-5(1H)-one] | > 8.00 | 
4 | O=c1cc(N2CCOCC2)nc2n1CC[C@@H](C(F)(F)F)N2CC1CC1 [Example 2b, (8S)-9-(Cyclopropylmethyl)-2-(morpholin-4-yl)-8-(trifluoromethyl)-6,7,8,9-tetrahydro-4H-pyrimido[1,2-a]pyrimidin-4-one] | > 8.00 | 
5 | C[C@@]1(C(F)(F)F)Cn2c(nc(N3CCOCC3)cc2=O)N1C1CCCC1 [Example 3a, (2S)-1-Cyclopentyl-2-methyl-7-(morpholin-4-yl)-2-(trifluoromethyl)-2,3-dihydroimidazo[1,2-a]pyrimidin-5(1H)-one] | > 8.00 | 
6 | O=c1cc(N2CCOCC2)nc2n1CC[C@@H](C(F)(F)F)N2C1CCCC1 [Example 3b, (8S)-9-Cyclopentyl-2-(morpholin-4-yl)-8-(trifluoromethyl)-6,7,8,9-tetrahydro-4H-pyrimido[1,2-a]pyrimidin-4-one] | > 8.00 | 
7 | O=c1cc(N2CCOCC2)nc2n1CC[C@@H](C(F)(F)F)N2CCO [Example 4b, (8S)-9-(2-Hydroxyethyl)-2-(morpholin-4-yl)-8-(trifluoromethyl)-6,7,8,9-tetrahydro-4H-pyrimido[1,2-a]pyrimidin-4-one] | 7.00 to 8.00 | 117
8 | CC(C)(O)CN1c2nc(N3CCOCC3)cc(=O)n2C[C@@]1(C)C(F)(F)F [Example 5a, (S)-1-(2-Hydroxy-2-methyl-propyl)-2-methyl-7-(morpholin-4-yl)-2-(trifluoromethyl)-2,3-dihydroimidazo[1,2-a]pyrimidin-5(1H)-one] | 7.00 to 8.00 | 72
9 | COC(C)(C)CN1c2nc(N3CCOCC3)cc(=O)n2C[C@@]1(C)C(F)(F)F [Example 6a, (S)-1-(2-Methoxy-2-methyl-propyl)-2-methyl-7-(morpholin-4-yl)-2-(trifluoromethyl)-2,3-dihydroimidazo[1,2-a]pyrimidin-5(1H)-one] | > 8.00 | 
10 | O=c1cc(N2CCOCC2)nc2n1CC[C@@H](C(F)(F)F)N2CCOCC(F)(F)F [Example 6b, (S)-2-(Morpholin-4-yl)-9-[2-(2,2,2-trifluoro-ethoxy)-ethyl]-8-(trifluoromethyl)-6,7,8,9-tetrahydro-4H-pyrimido[1,2-a]pyrimidin-4-one] | 7.00 to 8.00 | 107.8
11 | CC(C)OCCN1c2nc(N3CCOCC3)c(F)c(=O)n2CC[C@H]1C(F)(F)F [Example 7b, (8S)-3-Fluoro-9-(2-isopropoxy-ethyl)-2-(morpholin-4-yl)-8-(trifluoromethyl)-6,7,8,9-tetrahydro-4H-pyrimido[1,2-a]pyrimidin-4-one] | > 8.00 | 117
12 | CC(C)(O)CN1c2nc(N3CCOCC3)cc(=O)n2CC[C@H]1C(F)(F)F [Example 8b, (8S)-9-(2-Hydroxy-2-methylpropyl)-2-(morpholin-4-yl)-8-(trifluoromethyl)-6,7,8,9-tetrahydro-4H-pyrimido[1,2-a]pyrimidin-4-one] | > 8.00 | 
13 | Cc1c(N2CCOCC2)nc2n(c1=O)CC[C@@H](C(F)(F)F)N2CC(C)(C)O [Example 9b, (S)-9-(2-Hydroxy-2-methyl-propyl)-3-methyl-2-(morpholin-4-yl)-8-trifluoromethyl-6,7,8,9-tetrahydro-4H-pyrimido[1,2-a]pyrimidin-4-one] | < 7.00 | 170
14 | COC(C)(C)CN1c2nc(N3CCOCC3)cc(=O)n2CC[C@H]1C(F)(F)F [Example 10b, (S)-9-(2-Methoxy-2-methyl-propyl)-2-(morpholin-4-yl)-8-trifluoromethyl-6,7,8,9-tetrahydro-4H-pyrimido[1,2-a]pyrimidin-4-one] | 7.00 to 8.00 | 172
15 | CS(=O)(=O)CCN1c2nc(N3CCOCC3)cc(=O)n2CC[C@H]1C(F)(F)F [Example 17b, (8S)-9-(2-Methanesulfonyl-ethyl)-2-morpholin-4-yl-8-trifluoromethyl-6,7,8,9-tetrahydro-pyrimido[1,2-a]pyrimidin-4-one] | > 8.00 | 96

Further lines, results first:

Row | pIC50 [1] | melting point [°C] | SMILES
16 | 7.00 to 8.00 | 88 | CC(C)OCCN1c2nc(N3CCOCC3)cc(=O)n2C[C@@]1(C)C(F)(F)F [Example 4a, (S)-1-(2-Isopropoxy-ethyl)-2-methyl-7-(morpholin-4-yl)-2-(trifluoromethyl)-2,3-dihydroimidazo[1,2-a]pyrimidin-5(1H)-one]
17 | < 7.00 |  | CC(C)OCCN1c2nc(N3CCOCC3)cc(=O)n2CC1(C)C [Example 7a, 1-(2-Isopropoxyethyl)-2,2-dimethyl-7-(morpholin-4-yl)-2,3-dihydroimidazo[1,2-a]pyrimidin-5(1H)-one]
18 | < 7.00 |  | COCCN1c2nc(N3CCOCC3)cc(=O)n2CC12CCCC2 [Example 8a, 1′-(2-Methoxyethyl)-7′-morpholin-4-ylspiro[cyclopentane-1,2′-imidazo[1,2-a]pyrimidin]-5′-one]
19 | 7.00 to 8.00 |  | CC(C)OCCN1c2nc(N3CCOCC3)cc(=O)n2CC12CCCC2 [Example 9a, 1′-(2-isopropoxyethyl)-7′-morpholin-4-ylspiro[cyclopentane-1,2′-imidazo[1,2-a]pyrimidin]-5′-one]
20 | > 8.00 |  | CC(C)OCCN1c2nc(N3CCOCC3)cc(=O)n2CC[C@@]1(C)C(F)(F)F [Example 11Ab, (8S)-8-Methyl-2-(morpholin-4-yl)-9-(2-(propan-2-yloxy)ethyl)-8-(trifluoromethyl)-6,7,8,9-tetrahydro-4H-pyrimido[1,2-a]pyrimidin-4-one]
21 | < 7.00 |  | CC(C)OCCN1c2nc(N3CCOCC3)cc(=O)n2CC[C@]1(C)C(F)(F)F [Example 11Bb, (8R)-8-Methyl-2-(morpholin-4-yl)-9-(2-(propan-2-yloxy)ethyl)-8-(trifluoromethyl)-6,7,8,9-tetrahydro-4H-pyrimido[1,2-a]pyrimidin-4-one]
22 | 7.00 to 8.00 |  | COCCN1c2nc(N3CCOCC3)cc(=O)n2CCC1(C)C [Example 12b, 9-(2-Methoxyethyl)-8,8-dimethyl-2-(morpholin-4-yl)-6,7,8,9-tetrahydro-4H-pyrimido[1,2-a]pyrimidin-4-one]
23 | 7.00 to 8.00 |  | CC(C)OCCN1c2nc(N3CCOCC3)cc(=O)n2CCC1(C)C [Example 13b, 9-(2-Isopropoxyethyl)-8,8-dimethyl-2-(morpholin-4-yl)-6,7,8,9-tetrahydro-4H-pyrimido[1,2-a]pyrimidin-4-one]
24 | < 7.00 |  | COCCN1CC(C)(C)Cn2c1nc(N1CCOCC1)cc2=O [Example 14b, 9-(2-Methoxyethyl)-7,7-dimethyl-2-(morpholin-4-yl)-6,7,8,9-tetrahydro-4H-pyrimido[1,2-a]pyrimidin-4-one]
25 | < 7.00 |  | CC(C)OCCN1CC(C)(C)Cn2c1nc(N1CCOCC1)cc2=O [Example 15b, 9-(2-Isopropoxyethyl)-7,7-dimethyl-2-(morpholin-4-yl)-6,7,8,9-tetrahydro-4H-pyrimido[1,2-a]pyrimidin-4-one]
26 | 7.00 to 8.00 |  | CC(C)OCCN1CC2(CC2)Cn2c1nc(N1CCOCC1)cc2=O [Example 16b, 1-(2-Isopropoxyethyl)-8′-(morpholin-4-yl)-1′,2′-dihydro-spiro[cyclopropane-1,3′-pyrimido[1,2-a]pyrimidin]-6′-one]
